Reference: patent US20100227921A1, “AMINO ACID AND PEPTIDE CARBAMATE PRODRUGS OF […] USES THEREOF” (SHIRE LLC, priority 2009, published 2010)
Where “and” joins values, the source holds several entries; their conditions need not be identical. Equal values may be shown once. Read-outs that look alike come from different tables or passages of the source. Marks after values point to notes of the source that are not given here.

Experiment: Comparative bioavailability after oral or intravenous administration to monkeys (plasma LC-MS-MS)
Format: in vivo, cynomolgus monkey
Conditions: for half-life: read-out: t½ of tapentadol valine carbamate (converted); for AUC(0-t): read-out: AUCt of tapentadol valine carbamate; for clearance: read-out: CL of tapentadol valine carbamate (converted); for Vd: read-out: Vss of tapentadol valine carbamate; for Tmax: cynomolgus
Protocol: Test substances i.e., tapentadol and tapentadol valine carbamate were administered (either intravenously or orally) to a group of five male cynomolgus monkeys in a three way crossover design. The oral doses were given at 1 mg tapentadol base equivalents/kg while the intravenous dose was 0.5 mg/kg
Blood samples were taken at various times after administration and submitted to analysis for the parent drug and tapentadol valine carbamate using a validated LC-MS-MS assay. Pharmacokinetic parameters derived from the plasma analytical data were determined using Win Nonlin.

[1] = male monkey, i.v. tapentadol valine carbamate 0.5 mg tapentadol free base equiv/kg, individual animals 1-5
[2] = male monkey, oral tapentadol valine carbamate 1 mg tapentadol free base equiv/kg, individual animals 1-5
[3] = male, cynomolgus monkey, plasma, iv, 0.5 mg/kg, male monkey, i.v. tapentadol valine carbamate 0.5 mg tapentadol free base equiv/kg, individual animals 1-5
[4] = male, cynomolgus monkey, plasma, iv, 0.5 mg/kg, male monkey, i.v. tapentadol valine carbamate 0.5 mg tapentadol free base equiv/kg, mean
[5] = male, cynomolgus monkey, plasma, po, 1 mg tapentadol free base equiv/kg, male monkey, oral tapentadol valine carbamate 1 mg tapentadol free base equiv/kg, individual animals 1-5
[6] = male, cynomolgus monkey, plasma, po, 1 mg tapentadol free base equiv/kg, male monkey, oral tapentadol valine carbamate 1 mg tapentadol free base equiv/kg, mean

CC[C@H](c1cccc(OC(=O)N[C@H](C(=O)O)C(C)C)c1)[C@H](C)CN(C)C (racemic) [Tapentadol valine carbamate, 2-[3-(3-Dimethylamino-1-ethyl-2-methyl-propyl)-phenoxycarbonylamino]-3-methyl-butyric acid]
concentration at 6 h (cynomolgus monkey, plasma, iv, male monkey, i.v. tapentadol valine carbamate 0.5 mg tapentadol free base equiv/kg, 6 h, individual animals 1-5): 3.21 ng/mL | Plasma concentration of tapentadol valine carbamate (male monkey, i.v. tapentadol valine carbamate 0.5 mg tapentadol free base equiv/kg, 0 h, individual animals 1-5): BLQ (BLQ Values less than LOQ (<0.5 ng/mL)) | Plasma concentration of tapentadol valine carbamate (male monkey, i.v. tapentadol valine carbamate 0.5 mg tapentadol free base equiv/kg, 0.083 h, individual animals 1-5): 951 ng/mL and 914 ng/mL and 1166 ng/mL and 1024 ng/mL | Plasma concentration of tapentadol valine carbamate (male monkey, i.v. tapentadol valine carbamate 0.5 mg tapentadol free base equiv/kg, 0.25 h, individual animals 1-5): 825 ng/mL and 848 ng/mL and 427 ng/mL and 672 ng/mL | Plasma concentration of tapentadol valine carbamate (male monkey, i.v. tapentadol valine carbamate 0.5 mg tapentadol free base equiv/kg, 0.5 h, individual animals 1-5): 119.8 ng/mL and 576 ng/mL and 620 ng/mL and 609 ng/mL and 430 ng/mL | Plasma concentration of tapentadol valine carbamate (male monkey, i.v. tapentadol valine carbamate 0.5 mg tapentadol free base equiv/kg, 1 h, individual animals 1-5): 205 ng/mL and 326 ng/mL and 274 ng/mL and 251 ng/mL | Plasma concentration of tapentadol valine carbamate (male monkey, i.v. tapentadol valine carbamate 0.5 mg tapentadol free base equiv/kg, 2 h, individual animals 1-5): 112.1 ng/mL and 115.5 ng/mL and 85.6 ng/mL and 87.7 ng/mL | Plasma concentration of tapentadol valine carbamate (male monkey, i.v. tapentadol valine carbamate 0.5 mg tapentadol free base equiv/kg, 4 h, individual animals 1-5): 20.0 ng/mL and 21.4 ng/mL and 12.2 ng/mL and 14.6 ng/mL | Plasma concentration of tapentadol valine carbamate (male monkey, i.v. tapentadol valine carbamate 0.5 mg tapentadol free base equiv/kg, 6 h, individual animals 1-5): 4.94 ng/mL and 6.10 ng/mL and 3.48 ng/mL and 4.20 ng/mL | Plasma concentration of tapentadol valine carbamate (male monkey, i.v. tapentadol valine carbamate 0.5 mg tapentadol free base equiv/kg, 9 h, individual animals 1-5): 1.04 ng/mL and 0.769 ng/mL and 1.89 ng/mL and 1.20 ng/mL and 1.35 ng/mL | AUC of tapentadol valine carbamate [1]: 926 ng·h/mL and 1050 ng·h/mL and 915 ng·h/mL and 846 ng·h/mL | AUCt of tapentadol valine carbamate [1]: 925 ng·h/mL and 1040 ng·h/mL and 912 ng·h/mL and 843 ng·h/mL | C0 of tapentadol valine carbamate [1]: 794 ng/mL and 1020 ng/mL and 949 ng/mL and 1930 ng/mL and 1260 ng/mL | CL of tapentadol valine carbamate [1]: 9 mL/min/kg and 7.97 mL/min/kg and 9.12 mL/min/kg and 8.18 mL/min/kg | Vss of tapentadol valine carbamate [1]: 0.529 L/kg and 0.499 L/kg and 0.481 L/kg and 0.562 L/kg | t½ of tapentadol valine carbamate [1]: 1.1 h | AUC of tapentadol valine carbamate [2]: 219 ng·h/mL and 367 ng·h/mL and 368 ng·h/mL and 48 ng·h/mL and 436 ng·h/mL | AUCt of tapentadol valine carbamate [2]: 216 ng·h/mL and 351 ng·h/mL and 358 ng·h/mL and 187 ng·h/mL and 432 ng·h/mL | Cmax of tapentadol valine carbamate [2]: 150 ng/mL and 176 ng/mL and 153 ng/mL and 92.1 ng/mL and 249 ng/mL | T>50%Cmax of tapentadol valine carbamate [2]: 0.5 h (4×) and 1 h | t½ of tapentadol valine carbamate [2]: 3.35 h and 2.48 h and 1.86 h and 2.88 h | T>50%Cmax of tapentadol valine carbamate (male monkey, oral tapentadol valine carbamate 1 mg tapentadol free base equiv/kg, median): 0.5^a h | Plasma concentration of tapentadol valine carbamate (male monkey, oral tapentadol valine carbamate 10 mg tapentadol free base equiv/kg, 0.5 h, individual animals 1-5): 150 ng/mL and 176 ng/mL and 153 ng/mL and 34.7 ng/mL and 249 ng/mL | Plasma concentration of tapentadol valine carbamate (male monkey, oral tapentadol valine carbamate 10 mg tapentadol free base equiv/kg, 0.5 h, mean): 153 ng/mL | Plasma concentration of tapentadol valine carbamate (male monkey, oral tapentadol valine carbamate 10 mg tapentadol free base equiv/kg, 1 h, individual animals 1-5): 96.1 ng/mL and 126 ng/mL and 127 ng/mL and 92.1 ng/mL and 227 ng/mL | Plasma concentration of tapentadol valine carbamate (male monkey, oral tapentadol valine carbamate 10 mg tapentadol free base equiv/kg, 1 h, mean): 134 ng/mL | Plasma concentration of tapentadol valine carbamate (male monkey, oral tapentadol valine carbamate 10 mg tapentadol free base equiv/kg, 2 h, individual animals 1-5): 31.8 ng/mL and 71.3 ng/mL and 58.9 ng/mL and 49.4 ng/mL and 87.9 ng/mL | Plasma concentration of tapentadol valine carbamate (male monkey, oral tapentadol valine carbamate 10 mg tapentadol free base equiv/kg, 2 h, mean): 59.9 ng/mL | Plasma concentration of tapentadol valine carbamate (male monkey, oral tapentadol valine carbamate 10 mg tapentadol free base equiv/kg, 3 h, individual animals 1-5): 10.7 ng/mL and 23.1 ng/mL and 25.2 ng/mL and 16.4 ng/mL and 22.1 ng/mL | Plasma concentration of tapentadol valine carbamate (male monkey, oral tapentadol valine carbamate 10 mg tapentadol free base equiv/kg, 3 h, mean): 19.5 ng/mL | Plasma concentration of tapentadol valine carbamate (male monkey, oral tapentadol valine carbamate 10 mg tapentadol free base equiv/kg, 4 h, individual animals 1-5): 5.49 ng/mL and 15.1 ng/mL and 25.7 ng/mL and 12.7 ng/mL and 6.89 ng/mL | Plasma concentration of tapentadol valine carbamate (male monkey, oral tapentadol valine carbamate 10 mg tapentadol free base equiv/kg, 4 h, mean): 13.2 ng/mL | Plasma concentration of tapentadol valine carbamate (male monkey, oral tapentadol valine carbamate 10 mg tapentadol free base equiv/kg, 6 h, individual animals 1-5): 4.60 ng/mL and 10.0 ng/mL and 17.0 ng/mL and 4.51 ng/mL and 3.93 ng/mL | Plasma concentration of tapentadol valine carbamate (male monkey, oral tapentadol valine carbamate 10 mg tapentadol free base equiv/kg, 6 h, mean): 8.01 ng/mL | Plasma concentration of tapentadol valine carbamate (male monkey, oral tapentadol valine carbamate 10 mg tapentadol free base equiv/kg, 9 h, individual animals 1-5): 1.93 ng/mL and 7.34 ng/mL and 5.61 ng/mL and 1.11 ng/mL and 1.86 ng/mL | Plasma concentration of tapentadol valine carbamate (male monkey, oral tapentadol valine carbamate 10 mg tapentadol free base equiv/kg, 9 h, mean): 3.57 ng/mL | Plasma concentration of tapentadol valine carbamate (male monkey, oral tapentadol valine carbamate 10 mg tapentadol free base equiv/kg, 12 h, individual animals 1-5): 0.741 ng/mL and 2.97 ng/mL and 3.04 ng/mL and 0.716 ng/mL and 0.929 ng/mL | Plasma concentration of tapentadol valine carbamate (male monkey, oral tapentadol valine carbamate 10 mg tapentadol free base equiv/kg, 12 h, mean): 1.68 ng/mL | concentration at 0.083 h (male, cynomolgus monkey, plasma, iv, 0.5 mg tapentadol free base equiv/kg, male monkey, i.v. tapentadol valine carbamate 0.5 mg tapentadol free base equiv/kg, 0.083 h, mean): 969 ng/mL | concentration at 0.25 h (male, cynomolgus monkey, plasma, iv, 0.5 mg tapentadol free base equiv/kg, male monkey, i.v. tapentadol valine carbamate 0.5 mg tapentadol free base equiv/kg, 0.25 h, mean): 711 ng/mL | concentration at 0.5 h (male, cynomolgus monkey, plasma, iv, 0.5 mg tapentadol free base equiv/kg, male monkey, i.v. tapentadol valine carbamate 0.5 mg tapentadol free base equiv/kg, 0.5 h, mean): 471 ng/mL | concentration at 1 h (male, cynomolgus monkey, plasma, iv, 0.5 mg tapentadol free base equiv/kg, male monkey, i.v. tapentadol valine carbamate 0.5 mg tapentadol free base equiv/kg, 1 h, mean): 255 ng/mL | concentration at 2 h (male, cynomolgus monkey, plasma, iv, 0.5 mg tapentadol free base equiv/kg, male monkey, i.v. tapentadol valine carbamate 0.5 mg tapentadol free base equiv/kg, 2 h, mean): 98.6 ng/mL | concentration at 4 h (male, cynomolgus monkey, plasma, iv, 0.5 mg tapentadol free base equiv/kg, male monkey, i.v. tapentadol valine carbamate 0.5 mg tapentadol free base equiv/kg, 4 h, mean): 16 ng/mL | concentration at 6 h (male, cynomolgus monkey, plasma, iv, 0.5 mg tapentadol free base equiv/kg, male monkey, i.v. tapentadol valine carbamate 0.5 mg tapentadol free base equiv/kg, 6 h, mean): 4.39 ng/mL | concentration at 9 h (male, cynomolgus monkey, plasma, iv, 0.5 mg tapentadol free base equiv/kg, male monkey, i.v. tapentadol valine carbamate 0.5 mg tapentadol free base equiv/kg, 9 h, mean): 1.25 ng/mL | half-life (male, cynomolgus monkey, plasma, iv, 0.5 mg/kg, male monkey, i.v. tapentadol valine carbamate 0.5 mg tapentadol free base equiv/kg, calculated as ln2/mean k): 1.4 h | AUC [3]: 680 ng·h/mL | AUC(0-t) [3]: 678 ng·h/mL | clearance [3]: 12.2 mL/min/kg | Vd [3]: 0.75 L/kg | half-life [3]: 1.5 h | AUC [4]: 883 ng·h/mL | C0 [4]: 1190 ng/mL | AUC(0-t) [4]: 880 ng·h/mL | clearance [4]: 9.63 mL/min/kg | Vd [4]: 0.564 L/kg | half-life (male, cynomolgus monkey, plasma, po, 1 mg tapentadol free base equiv/kg, male monkey, oral tapentadol valine carbamate 1 mg tapentadol free base equiv/kg, calculated as ln2/mean k): 2.47 h | half-life [5]: 2.28 h | AUC [6]: 316 ng·h/mL | Cmax [6]: 164 ng/mL | AUC(0-t) [6]: 309 ng·h/mL | Tmax [5]: 0.5 h | Tmax (male, cynomolgus monkey, plasma, po, 1 mg tapentadol free base equiv/kg, male monkey, oral tapentadol valine carbamate 1 mg tapentadol free base equiv/kg, median): 0.5 h | prodrug absorbed after oral administration (monkey, comparison of AUC after oral (Table 13) and intravenous dosing (Table 12)): at least 36%
